The text below walks through data of patent publication US20240248442A1, “COMPUTER-IMPLEMENTED METHOD FOR APPLYING A GLUTAMINE […] ON AN AG[…]” (BASF SE, priority 2021, published 2024).

Each structure is given as a SMILES string.

The test has as its system GLXMA (Glycine max; soybean plant). In words: Greenhouse spray test of glufosinate efficacy on soybean plants under different nitrogen supply. The following applies: GF-solution 280 g/l glufosinate-ammonium, 300 g a.i./ha, water rate 200 l/ha, assessed 3 and 7 daa (time of this value not stated). Type of test: in vivo. The protocol:
GLXMA (Glycine max; soybean plant) plants were grown on soil in a green house. Before separation into single pots plants were watered with demineralized water (VE-water). After separation into single pots and splitting into four different nourishing groups, the pots were individually watered with 50 ml of the respective nutrient solution. The following recipe for the full-nutrient solution (5 mM N) mentioned in the book “Diagnose des Ernährungszustandes von Kulturpflanzen”, ISBN: 978-3-86263-118-6, table 3-2, page 94 has been used:
Plants were grown until the growth stage GS 61 (58-74 cm), where first symptoms of nutrient deficiency became visible. This included yellowing of the leaves which were watered with N-deficient media.
A spray application was performed in a high speed spray cabin with the following settings: used nozzle: TT 110 02; pressure: 3 bar; speed: 1.33 m/s; temperature: 22° C.; relative spray humidity: 55%
Spray solution: A GF-solution comprising 280 g/l glufosinate-ammonium is sprayed with an a.i. dose rate of 300 g/ha and a water rate of 200 l/ha. The control plants were sprayed with water (ddH2O) only. After spraying, all plants were watered with VE-water. A biological assessment was performed 3 and 7 days after application (daa).
In other words, to achieve an N-deficiency, the plants were separated in four different groups, which were watered with 4 different nutrient solutions. The “full” medium contained a final concentration of 5 mM N nitrogen-sources, whereas the N-deficiency media contained either 0 mM N (“null” medium) or 1.25 mM N and 2.5 mM N (“deficiency” media). Nutrient deficiency became visible at the GS 61.
In FIGS. 2 and 3, GLXMA is Glycine max (soybean plant), G ai/ha is grams of active ingredient per hectare, CWD is the control group without treatment, GF-Solution is the solution comprising 280 g/l glufosinate-ammonium. At full (5 mM) or half full (2.5 mM) nitrogen supply was detected and rated to an average of 35. Lowering the nitrogen supply to a level of 1.25 mM increases the efficacy of glufosinate to 48, which is visibly by more chlorotic and necrotic tissue. Under complete nitrogen deficiency the symptoms are boosted and result in an average efficacy rating of 75.

In the case of `CP(=O)(O)CCC(N)C(=O)O` (racemic) [glufosinate, (2RS)-2-amino-4-[hydroxy-(methyl)phosphinoyl]butyric acid], the “average efficacy rating (biological assessment)” value by setting is: (complete nitrogen deficiency (0 mM N)) 75; (full (5 mM) nitrogen supply) 35; (half full (2.5 mM) nitrogen supply) 35; (nitrogen supply 1.25 mM) 48.
